Assay results published in patent publication US20250034216A1, “STEREOSELECTIVE COVALENT LIGANDS FOR ONCOGENIC AND IMMUNOLOGICAL PROTEINS” (The Scripps Research Institute, priority 2021, published 2025).

What follows are molecules tested against T1, CLUH_C333 (Homo sapiens, UniProt O75153) (assay: IA-DTB cysteine engagement). Conditions: 22Rv1 cells, 20 μM probe, 1 h, relative to DMSO.
T1 construct: endogenous in cells; host or cells: 22Rv1
T1 sequence (O75153 1-1309): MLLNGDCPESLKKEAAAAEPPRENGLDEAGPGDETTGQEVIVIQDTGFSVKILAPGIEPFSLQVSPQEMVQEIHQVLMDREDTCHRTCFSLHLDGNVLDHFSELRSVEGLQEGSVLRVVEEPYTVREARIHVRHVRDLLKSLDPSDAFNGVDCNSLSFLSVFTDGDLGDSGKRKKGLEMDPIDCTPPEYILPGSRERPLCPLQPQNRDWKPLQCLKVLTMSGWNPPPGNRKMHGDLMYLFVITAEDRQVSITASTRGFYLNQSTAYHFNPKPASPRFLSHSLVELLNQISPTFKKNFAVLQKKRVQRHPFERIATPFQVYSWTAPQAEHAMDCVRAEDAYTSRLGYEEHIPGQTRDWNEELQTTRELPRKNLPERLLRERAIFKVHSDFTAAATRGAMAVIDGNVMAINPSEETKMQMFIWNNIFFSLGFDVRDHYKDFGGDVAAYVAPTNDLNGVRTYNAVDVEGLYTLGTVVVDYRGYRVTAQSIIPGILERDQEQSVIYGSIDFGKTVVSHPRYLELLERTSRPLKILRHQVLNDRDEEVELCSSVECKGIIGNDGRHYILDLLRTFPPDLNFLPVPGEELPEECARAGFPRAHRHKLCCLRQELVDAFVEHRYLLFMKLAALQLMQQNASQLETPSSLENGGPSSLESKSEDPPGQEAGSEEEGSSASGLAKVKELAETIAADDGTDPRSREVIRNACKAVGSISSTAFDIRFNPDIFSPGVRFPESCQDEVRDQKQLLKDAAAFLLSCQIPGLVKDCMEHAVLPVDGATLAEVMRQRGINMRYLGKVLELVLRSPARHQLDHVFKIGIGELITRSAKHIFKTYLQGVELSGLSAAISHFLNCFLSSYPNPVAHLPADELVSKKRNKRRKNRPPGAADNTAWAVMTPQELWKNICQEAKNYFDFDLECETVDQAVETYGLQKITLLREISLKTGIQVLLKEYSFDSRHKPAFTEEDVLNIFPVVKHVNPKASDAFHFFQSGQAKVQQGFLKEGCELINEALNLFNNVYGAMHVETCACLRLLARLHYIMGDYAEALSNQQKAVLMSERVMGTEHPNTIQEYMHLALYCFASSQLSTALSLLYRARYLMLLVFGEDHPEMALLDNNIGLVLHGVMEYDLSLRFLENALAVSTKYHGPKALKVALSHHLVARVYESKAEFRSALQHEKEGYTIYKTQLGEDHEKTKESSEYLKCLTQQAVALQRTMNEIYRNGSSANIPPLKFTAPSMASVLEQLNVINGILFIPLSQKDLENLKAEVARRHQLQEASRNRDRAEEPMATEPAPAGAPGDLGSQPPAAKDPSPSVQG
Type: binding
Outline: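 Read-out is TMT-based cysteine engagement, expressed as each reporter ion intensity divided by the average of the DMSO channels. Before that, probe-treated cell lysates were capped with IA-DTB, digested, enriched on streptavidin and TMT-tagged. PSMs with DMSO summed intensity <10,000 or DMSO CV >0.5 were excluded.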

| % engagement CLUH_C333 [%] | SMILES |
| --- | --- |
| 81 | C=CC(=O)N1C[C@@H](c2ccc(Br)cc2)[C@H]1C(=O)Nc1cccc2cccnc12 [MY-1A, (2S,3R)-1-acryloyl-3-(4-bromophenyl)-N-(quinolin-8-yl)azetidine-2-carboxamide] |
| 13 | C=CC(=O)N1C[C@H](c2ccc(Br)cc2)[C@@H]1C(=O)Nc1cccc2cccnc12 [MY-1B, (2R,3S)-1-acryloyl-3-(4-bromophenyl)-N-(quinolin-8-yl)azetidine-2-carboxamide] |
| −4.5 | C=CC(=O)N1C[C@H](c2ccc(Br)cc2)[C@H]1C(=O)Nc1cccc2cccnc12 [MY-3B, (2S,3S)-1-acryloyl-3-(4-bromophenyl)-N-(quinolin-8-yl)azetidine-2-carboxamide] |
| 0.5 | C=CC(=O)N1C[C@H](c2ccc(Br)cc2)[C@H]1C(=O)Nc1cccc2cccnc12 [MY-3A, (2S,3S)-1-acryloyl-3-(4-bromophenyl)-N-(quinolin-8-yl)azetidine-2-carboxamide] |
